Measured values: US20260083687A1, “COMPOUNDS FOR REDUCING LACTATION AND IMPROVING HEALTH” (AHV International B.V., priority 2022, published 2026)
Several values for one entry are separate records, joined by “and”; a condition that tells them apart may be missing. Equal entries are not always repeated. Where two headings read alike, the source gives them in different places.

What was measured:
[1] = system: cows (Holstein Friesians); test: Treatment with DPD analogs (organosulfur compounds) and milk yield (Example 8); assay type: in vivo, cow; details: for % reduction after 24 h average (milk yield): 24 h after one oral gel capsule; for % reduction after 24 h average (milk yield) / % reduction after 48 h average (milk yield) / % reduction after 72 h average (milk yield) / % reduction after 96 h average (milk yield) / average reduction after 24, 48 and 72 h (%) (milk yield) / Average reduction after 24 and 48 h (%) (milk yield): dose equimolar to 80 ml di-n-propyl disulfide; for % reduction after 24 h average (milk yield) / % reduction after 48 h average (milk yield) / % reduction after 72 h average (milk yield) / % reduction after 96 h average (milk yield): negative value = increase in yield; for % reduction after 48 h average (milk yield): 48 h after one oral gel capsule; for % reduction after 72 h average (milk yield): 72 h after one oral gel capsule; for % reduction after 96 h average (milk yield): 96 h after one oral gel capsule; for average reduction after 24, 48 and 72 h (%) (milk yield): average of 24, 48 and 72 h after one oral gel capsule; for Average reduction after 24 and 48 h (%) (milk yield): average of 24 and 48 h after one oral gel capsule; for Milk yield (kg) Last milking: before administration, single oral gel capsule dose per cow (ml unless g): diethyl disulfide 63, di-n-propyl disulfide 80, diisopropyl disulfide 160, di-n-butyl disulfide 100, dibenzyl disulfide 102, diethyl sulfide 55, di-n-propyl sulfide 72, diisopropyl sulfide 74, di-n-butyl sulfide 90, dibenzyl sulfide 96 g, diphenyl sulfide 85, di-n-propyl trisulfide 98, di-n-propyl sulfone 6; for Milk yield (kg) Last milking / Average reduction after 24 and 48 h (%) / Milk yield (kg) After 24 h / Milk yield (kg) After 48 h / Milk yield (kg) After 72 h / Milk yield (kg) After 96 h / average reduction after 24, 48 and 72 h (%) / % reduction after 24 h / % reduction after 48 h / % reduction after 72 h / % reduction after 96 h: individual cows; for Average reduction after 24 and 48 h (%) / Milk yield (kg) After 24 h / Milk yield (kg) After 48 h / Milk yield (kg) After 72 h / Milk yield (kg) After 96 h / average reduction after 24, 48 and 72 h (%) / % reduction after 24 h / % reduction after 48 h / % reduction after 72 h / % reduction after 96 h: dose per compound as listed in E284; for % reduction after 24 h / % reduction after 48 h / % reduction after 72 h / % reduction after 96 h: vs milk yield before treatment
Description: Study design. 36 cows (Holstein Friesians) from 2 farms were used. The feed of the cows was composed of TMR, including corn and grass silage, supplemented with soya and minerals. […] The cows were milked in a milk robot. […] The cows were milked twice a day. The cows were housed in free stables. […] Placebo treatment corresponded to administration of two gel capsules containing 180 ml water.
For this study dosages synthetic compounds (>96% purity) as indicated in table 17 were administered to cows. The objective of this study was to compare the activity of a corresponding dose of the compounds expressed in mol, based on the number of moles that is present in 80 ml di-n-propyl disulfide at 20° C. The number of moles was converted to ml or grams of the tested compounds. For this purpose, the molecular weight and specific density were used in the calculations. The compounds were formulated in the gel capsules as indicated in the previous examples.
Before the various dosages were administered, the milk yields were monitored for at least 5 days.

[2] = system: cows (Holstein Friesians)
Description: Study design. Twelve cows (Holstein Friesians) from 1 farm were used. The start of the dry period of every cow was between 40 to 60 days before calving. The cows were milked twice a day at fixed times and the cows were selected on a milk production of >12.5 litres/day 24 hours before PTS administering took place. […] No extra measures were taken to stimulate dry-off, such as changes in feed ration or changes in milking frequency. The cows were milked twice a day. The cows were housed in free stables. A porcine gelatine capsule with PTS or placebo gel capsule with water were administered 7 to 14 days before the start of the dry-off period.
For this study various dosages synthetic PTS (>98% purity) were administered to cows with a milk yield of at least 12.5 kg milk per day. The following dosages were applied: 0, 10, 20, 40 ml of pure PTS. For each dosage 2 cows were used.
Before the various dosages were administered the milk yield was monitored for 14 days. The gel capsules were orally administered by a bolus shooter, the gel capsule for the placebo group contained tap water. Administering of a capsule took place between the morning and afternoon milking. On t=14 days the PTS-containing capsules and the placebo capsules were administered and the milk yield was monitored 48 hours more.

[3] = system: cows (Holstein Friesians); details: for Milk yield Last milking: before administration; for % reduction after 24 h / % reduction after 48 h / % reduction after 72 h / % reduction after 96 h: vs milk yield before treatment
Description: Twelve cows (Holstein Friesians) from 1 farm were used. The start of the dry period of every cow was between 40 to 60 days before calving. The cows were milked twice a day at fixed times and the cows were selected on a milk production of >12.5 litres/day 24 hours before PTSO administering took place. No extra measures were taken to stimulate dry-off, such as changes in feed ration or changes in milking frequency. The cows were milked twice a day. The cows were housed in free stables. A porcine gelatine capsule with PTSO or placebo gel capsule with water were administered 7 to 14 days before the start of the dry-off period.
For this study various dosages synthetic PTSO (>98% purity) were administered to cows with a milk yield of at least 12.5 kg milk per day. The following dosages were applied: 0, 10, 20, 40 ml of pure PTSO. For each dosage 3 cows were used.
Before the various dosages were administered the milk yield was monitored for 14 days. The gel capsules were orally administered by a bolus shooter, the gel capsule for the placebo group contained tap water. Administering of a capsule took place between the morning and afternoon milking. On t=14 days the PTSO-containing capsules and the placebo capsules were administered and the milk yield was monitored 48 hours more.

CCCS[S+]([O-])CCC (stereo not drawn) [PTS, di-n-propyl thiosulfinate]
% reduction after 24 h average (milk yield) [1]: 45%
% reduction after 48 h average (milk yield) [1]: 44%
% reduction after 72 h average (milk yield) [1]: 23%
% reduction after 96 h average (milk yield) [1]: 10%
average reduction after 24, 48 and 72 h (%) (milk yield) [1]: 37%
Average reduction after 24 and 48 h (%) (milk yield) [1]: 45%
Milk yield (kg) Last milking [1]: 28.6 kg and 32.7 kg
Average reduction after 24 and 48 h (%) [1]: 49% and 40%
Milk yield (kg) After 24 h [1]: 14.5 kg and 19.4 kg
Milk yield (kg) After 48 h [1]: 14.9 kg and 20 kg
Milk yield (kg) After 72 h [1]: 23.4 kg and 23.9 kg
Milk yield (kg) After 96 h [1]: 27.2 kg and 27.8 kg
average reduction after 24, 48 and 72 h (%) [1]: 39% and 35.7%
% reduction after 24 h [1]: 49% and 40%
% reduction after 48 h [1]: 48% and 39%
% reduction after 72 h [1]: 18% and 27%
% reduction after 96 h [1]: 5% and 15%
effect on milk yield compared to the milk yield before treatment ([2]; 20 ml PTS): clear lowering on milk yield
effect on milk yield/day ([2]; 40 and 60 ml PTS): visible
Milk yield ([2]; 40 ml PTS given after last milking on day 0, day 0, individual cows): 32.4 kg and 28.4 kg
Milk yield ([2]; 40 ml PTS given on day 0, day 1, individual cows): 22.4 kg and 21.9 kg
Milk yield ([2]; 40 ml PTS given on day 0, day 2, individual cows): 24.4 kg and 23.4 kg
Milk yield ([2]; 40 ml PTS given on day 0, day 3, individual cows): 28.9 kg and 26.4 kg
Milk yield ([2]; 40 ml PTS given on day 0, day 4, individual cows): 32.2 kg and 27.1 kg
Milk yield ([2]; 40 ml PTS given on day 0, day 5, individual cows): 31.2 kg and 28.2 kg
Milk yield ([2]; 40 ml PTS given on day 0, day 6, individual cows): 32.0 kg and 28.3 kg
Milk yield ([2]; 40 ml PTS given on day 0, day −1, individual cows): 31.9 kg and 27.7 kg
Milk yield ([2]; 40 ml PTS given on day 0, day −2, individual cows): 32.2 kg and 28.9 kg
Milk yield ([2]; 40 ml PTS given on day 0, day −3, individual cows): 33.3 kg and 28.1 kg
Milk yield ([2]; 40 ml PTS given on day 0, day −4, individual cows): 31.9 kg and 28.5 kg
Milk yield ([2]; 40 ml PTS given on day 0, day −5, individual cows): 31.4 kg and 27.9 kg
Milk yield ([2]; 40 ml PTS given on day 0, day −6, individual cows): 33.2 kg and 28.3 kg
Average milking/day of last 7 days before administration ([2]; 40 ml PTS, individual cows): 32.3 kg and 28.3 kg
% reduction after 24 h ([2]; 40 ml PTS, individual cows): 31% and 23%
% reduction after 48 h ([2]; 40 ml PTS, individual cows): 24% and 17%
% reduction after 72 h ([2]; 40 ml PTS, individual cows): 11% and 7%
Average reduction 24 and 48 h (%) ([2]; 40 ml PTS, individual cows): 28% and 20%
Milk yield After 24 h ([2]; 40 ml PTS, individual cows): 22.4 kg and 21.9 kg
Milk yield After 48 h ([2]; 40 ml PTS, individual cows): 24.4 kg and 23.4 kg
Milk yield After 72 h ([2]; 40 ml PTS, individual cows): 28.9 kg and 26.4 kg
Milk yield After 96 h ([2]; 40 ml PTS, individual cows): 32.2 kg and 27.1 kg
Milk yield After 120 h ([2]; 40 ml PTS, individual cows): 31.2 kg and 28.2 kg
Milk yield ([2]; 60 ml PTS given after last milking on day 0, day 0, individual cows): 32.4 kg and 29.3 kg
Milk yield ([2]; 60 ml PTS given on day 0, day 1, individual cows): 19.4 kg and 14.5 kg
Milk yield ([2]; 60 ml PTS given on day 0, day 2, individual cows): 20.0 kg and 14.9 kg
Milk yield ([2]; 60 ml PTS given on day 0, day 3, individual cows): 23.9 kg and 23.4 kg
Milk yield ([2]; 60 ml PTS given on day 0, day 4, individual cows): 27.8 kg and 27.2 kg
Milk yield ([2]; 60 ml PTS given on day 0, day 5, individual cows): 31.6 kg and 28.3 kg
Milk yield ([2]; 60 ml PTS given on day 0, day 6, individual cows): 32.2 kg and 27.4 kg
Milk yield ([2]; 60 ml PTS given on day 0, day −1, individual cows): 32.2 kg and 28.1 kg
Milk yield ([2]; 60 ml PTS given on day 0, day −2, individual cows): 33.2 kg and 28.3 kg
Milk yield ([2]; 60 ml PTS given on day 0, day −3, individual cows): 31.9 kg and 27.4 kg
Milk yield ([2]; 60 ml PTS given on day 0, day −4, individual cows): 33.5 kg and 29.6 kg
Milk yield ([2]; 60 ml PTS given on day 0, day −5, individual cows): 32.4 kg and 28.3 kg
Milk yield ([2]; 60 ml PTS given on day 0, day −6, individual cows): 33.4 kg and 28.9 kg
Average milking/day of last 7 days before administration ([2]; 60 ml PTS, individual cows): 28.6 kg and 32.7 kg
% reduction after 24 h ([2]; 60 ml PTS, individual cows): 51% and 40%
% reduction after 48 h ([2]; 60 ml PTS, individual cows): 48% and 39%
% reduction after 72 h ([2]; 60 ml PTS, individual cows): 18% and 27%
% reduction after 96 h ([2]; 60 ml PTS, individual cows): 5% and 15%
Average reduction 24 and 48 h (%) ([2]; 60 ml PTS, individual cows): 50% and 40%
Milk yield After 24 h ([2]; 60 ml PTS, individual cows): 14.5 kg and 19.4 kg
Milk yield After 48 h ([2]; 60 ml PTS, individual cows): 14.9 kg and 20 kg
Milk yield After 72 h ([2]; 60 ml PTS, individual cows): 23.4 kg and 23.9 kg
Milk yield After 96 h ([2]; 60 ml PTS, individual cows): 27.2 kg and 27.8 kg
Milk yield After 120 h ([2]; 60 ml PTS, individual cows): 28.3 kg and 31.6 kg
time to recovery of milk yield after administration ([2]; PTS): 3 to 4 days
damage to the udder ([2]; bovine, in vivo): does not reduce milk yield because of damaging the udder

CCCSS(=O)(=O)CCC [PTSO, di-n-propyl thiosulfonate]
% reduction after 24 h average (milk yield) [1]: 61%
% reduction after 48 h average (milk yield) [1]: 71%
% reduction after 72 h average (milk yield) [1]: 41%
% reduction after 96 h average (milk yield) [1]: 4.7%
average reduction after 24, 48 and 72 h (%) (milk yield) [1]: 58%
Average reduction after 24 and 48 h (%) (milk yield) [1]: 66%
Milk yield (kg) Last milking [1]: 15.7 kg
Average reduction after 24 and 48 h (%) [1]: 66%
Milk yield (kg) After 24 h [1]: 7.7 kg
Milk yield (kg) After 48 h [1]: 4.6 kg
Milk yield (kg) After 72 h [1]: 9.3 kg
Milk yield (kg) After 96 h [1]: 14.5 kg
average reduction after 24, 48 and 72 h (%) [1]: 58%
% reduction after 24 h [1]: 61%
% reduction after 48 h [1]: 71%
% reduction after 72 h [1]: 41%
% reduction after 96 h [1]: 4.7%
Average reduction 24 and 48 h (%) ([3]; 10 ml PTSO): −5%
Milk yield After 24 h ([3]; 10 ml PTSO): 19.89 kg
Milk yield After 48 h ([3]; 10 ml PTSO): 19.51 kg
Milk yield After 72 h ([3]; 10 ml PTSO): 18.94 kg
Milk yield After 96 h ([3]; 10 ml PTSO): 18.67 kg
Milk yield Last milking ([3]; 10 ml PTSO): 18.76 kg
% reduction after 24 h ([3]; 10 ml PTSO): −6%
% reduction after 48 h ([3]; 10 ml PTSO): −4%
% reduction after 72 h ([3]; 10 ml PTSO): −0.03%
% reduction after 96 h ([3]; 10 ml PTSO): 0.01%
Average reduction 24 and 48 h (%) ([3]; 20 ml PTSO): 66%
Milk yield After 24 h ([3]; 20 ml PTSO): 7.7 kg
Milk yield After 48 h ([3]; 20 ml PTSO): 4.56 kg
Milk yield After 72 h ([3]; 20 ml PTSO): 9.31 kg
Milk yield After 96 h ([3]; 20 ml PTSO): 14.99 kg
effect on milk yield compared to the milk yield before treatment ([3]; 20 ml PTSO): clear lowering on milk yield
Milk yield Last milking ([3]; 20 ml PTSO): 15.72 kg
% reduction after 24 h ([3]; 20 ml PTSO): 61%
% reduction after 48 h ([3]; 20 ml PTSO): 71%
% reduction after 72 h ([3]; 20 ml PTSO): 41%
% reduction after 96 h ([3]; 20 ml PTSO): 4.7%
Average reduction 24 and 48 h (%) ([3]; 40 ml PTSO): 55%
Milk yield After 24 h ([3]; 40 ml PTSO): 8.89 kg
Milk yield After 48 h ([3]; 40 ml PTSO): 7.04 kg
Milk yield After 72 h ([3]; 40 ml PTSO): 9.06 kg
Milk yield After 96 h ([3]; 40 ml PTSO): 15.87 kg
Milk yield Last milking ([3]; 40 ml PTSO): 16.77 kg
% reduction after 24 h ([3]; 40 ml PTSO): 52%
% reduction after 48 h ([3]; 40 ml PTSO): 58%
% reduction after 72 h ([3]; 40 ml PTSO): 46%
% reduction after 96 h ([3]; 40 ml PTSO): 5.4%
time to complete recovery of milk yield ([3]; after PTSO administration): 3 to 4 days
damage to the udder ([3]; bovine, in vivo): does not cause any damage to the udder
dosage at which the effect on milk yield became visible ([3]; single oral dose): ≥ 20 mL
dosage giving maximum response (milk yield decrease) ([3]; single oral dose): ≥ 20 mL
